From US8124775B2, “Chemical compound and its use” (Bayer Pharma Aktiengesellschaft, priority 2004, dated 2012)
Read-outs that look alike come from different tables or passages of the source.

Tests used:
[1] = molecular target: T1, CETP (Homo sapiens, UniProt P11597); assay: Ex vivo activity on transgenic hCETP mice (serum CETP activity); format: in vivo; design: from tissue; host or cells: serum of transgenic hCETP mice (Dinchuk et al.); conditions: mouse, po
T1 sequence (P11597 18-493): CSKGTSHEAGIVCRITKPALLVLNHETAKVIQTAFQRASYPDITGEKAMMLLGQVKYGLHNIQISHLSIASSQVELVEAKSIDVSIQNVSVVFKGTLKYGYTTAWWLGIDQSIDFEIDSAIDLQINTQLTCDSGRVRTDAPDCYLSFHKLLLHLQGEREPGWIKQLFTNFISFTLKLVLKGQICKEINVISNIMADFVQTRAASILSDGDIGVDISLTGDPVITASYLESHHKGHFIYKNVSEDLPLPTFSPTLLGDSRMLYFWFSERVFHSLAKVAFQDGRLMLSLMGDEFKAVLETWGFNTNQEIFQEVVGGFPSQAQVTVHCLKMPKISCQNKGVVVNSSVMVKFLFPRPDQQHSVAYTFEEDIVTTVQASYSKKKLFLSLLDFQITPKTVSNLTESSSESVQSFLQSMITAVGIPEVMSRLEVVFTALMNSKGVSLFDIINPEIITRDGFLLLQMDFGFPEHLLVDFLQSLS
Description: 10 μl of buffer and 2 μl of serum are added to 80 μl of test mix, and the mixture is incubated at 37° C. for 4 h.
The change in the fluorescence at 485/535 nm is a measure for the CE transfer; the inhibition of the transfer is comparison to the control batch without substance is determined.
To test for CETP-inhibitory activity, the substances are administered orally using a stomach tube to transgenic hCETP mice bred in-house [Dinchuk et al. BBA 1295-301 (1995)]. To this end, male animals are randomly assigned to groups having an equal number of animals, as a rule n=4, one day before the start of the experiment. Before administration of the substance, blood is taken from each mouse by puncture of the retro-orbital venous plexus for the determination of its basal CETP activity in the serum (T1). The test substance is then administered to the animals using the stomach tube. At specific times after administration of the test substance, blood is taken from the animals by puncture a second time (T2), in general 16 or 24 h after substance administration, but if appropriate this can also be carried out at another time.
In order to be able to assess the inhibitory activity of a substance, for each time, i.e. 16 or 24 hours, a corresponding control group is employed whose animals only receive the formulating agent without substance. In the control animals, the second blood sampling per animal is carried out as in the substance-treated animals in order to be able to determine the change in the CETP activity without inhibitor over the corresponding experimental time interval (16 or 24 h).
After termination of the clotting, the blood samples are centrifuged and the serum is removed by pipette. For the determination of the CETP activity, the cholesteryl ester transport over 4 h is determined. To this end, in general 2 μl of serum are employed in the test batch and the test is carried out as described under B-I.2.3.
The differences in the cholesteryl ester transport [pM CE/h (T2)−pM CE/h (T1)] are calculated for each animal and averaged in the groups. A substance which at one of the times reduces the cholesteryl ester transport by >20% is regarded as active.
The change in the fluorescence at 485/535 nm is a measure for the CE transfer; the inhibition of the transfer in comparison to the control batch without substance is determined.
To test for CETP-inhibitory activity, the substances are administered orally using a stomach tube to transgenic hCETP mice bred in-house [Dinchuk et al., BBA, 1295-1301 (1995)]. To this end, male animals are randomly assigned to groups having an equal number of animals, as a rule n=4, one day before the start of the experiment. […]

[2] = molecular target: T1, CETP; assay: CETP-SPA test; format: biochemical; design: are added to 42 μl (86% v/v) of human plasma (Sigma P9523); tissue Sigma P9523; host or cells: human plasma; conditions: section (b), Example 1 = formula (Ib); 37° C., 18 h
Description: 50 ml of fresh human EDTA plasma is adjusted to a density of 1.12 using NaBr and centrifuged at 4° C. in a Ty 65 rotor at 50 000 rpm for 18 h. The upper phase is used for the obtainment of cold LDL. […]
For testing of the CETP activity, the transfer of ^3H-cholesterol ester from human HD lipoproteins to biotinylated LD lipoproteins is measured. The reaction is ended by addition of streptavidin-SPA® beads (Amersham) and the transferred radioactivity is determined directly in a liquid scintillation counter. […]

[3] = molecular target: T1, CETP; assay: CETP fluorescence test with enriched CETP; format: biochemical; design: tissue Sigma P9523; host or cells: human plasma; conditions: section (b), Example 1 = formula (Ib); enriched CETP from human plasma, 37° C., 4 hours
Description: CETP is obtained in partially purified form from human plasma by differential centrifugation and column chromatography and used for the test. To this end, human plasma is adjusted to a density of 1.21 g per ml using NaBr and centrifuged at 4° C. at 50 000 rpm for 18 h. The bottom fraction (d>1.21 g/ml) is applied to a Sephadex® Phenyl-Sepharose 4B (Pharmacia) column, washed with 0.15 M NaCl/0.001 M tris-HCl pH 7.4 and then eluted with distilled water. The CETP-active fractions are pooled, dialysed against 50 mM sodium acetate pH 4.5 and applied to a CM-Sepharose® column (Pharmacia). The mixture is then eluted using a linear gradient (0-1 M NaCl). The pooled CETP fractions are dialysed against 10 mM tris/HCl pH 7.4 and then further purified by chromatography on a Mono Q® column (Pharmacia).
Measurement of the CETP-catalysed transfer of a fluorescent cholesterol ester between liposomes [modified according to the procedure of Bisgaier et al., J. Lipid Res. 34, 1625 (1993)]: […]
The change in the fluorescence at 485/535 nm is a measure of the CE transfer; the inhibition of the transfer in comparison to the control batch without substance is determined. […]

[4] = molecular target: T1, CETP; assay: CETP fluorescence test with human plasma; format: biochemical; design: tissue Sigma P9523; host or cells: human plasma; conditions: section (b), Example 1 = formula (Ib), 37° C., 24 h
Description: For the production of the donor liposomes, 1 mg of cholesteryl 4,4-difluoro-5,7-dimethyl-4-bora-3a,4a-diaza-s-indacene-3-dodecanoate (cholesteryl BODIPY® FL C12, Molecular Probes) is dissolved in 600 μl of dioxane with 5.35 mg of triolein and 6.67 mg of phosphatidylcholine with gentle warming in an ultrasonic bath and this solution is added very slowly with ultrasonication to 63 ml of 50 mM tris/HCl, 150 mM NaCl, 2 mM EDTA buffer pH 7.3 at room temperature. The suspension is then ultrasonicated under an N2 atmosphere for 30 minutes in the Branson ultrasonic bath at about 50 watts, the temperature being kept at about 20° C.
6 μl (12% v/v) of donor liposomes and 1 μl (2% v/v) of a solution of the substance to be investigated in DMSO are added to 42 μl (86% v/v) of human plasma (Sigma P9523), and the mixture is incubated at 37° C. for 24 h.
The change in the fluorescence at 510/520 nm (gap width 2.5 nm) is a measure of the CE transfer; the inhibition of the transfer in comparison to the control batch without substance is determined. […]

`CC1(C)Cc2nc(C3CCCC3)c([C@@H](F)c3ccc(C(F)(F)F)cc3)c(C3CCCCC3)c2[C@@H](O)C1` [Example 1] gave an inhibition at 3 mg/kg ([1]; section (a), Example 1 = formula (Ia), 16 h after administration, read-out: % inhibition at 3 mg/kg, 16 h) of 50%, an inhibition at 3 mg/kg ([1]; section (a), Example 1 = formula (Ia), 24 h after administration, read-out: % inhibition at 3 mg/kg, 24 h) of 24% and an inhibition at 3 mg/kg ([1]; section (b), Example 1 = formula (Ib), 16 h after administration, read-out: % inhibition at 3 mg/kg, 16 h) of 49%. It also gave an inhibition at 3 mg/kg ([1]; section (b), Example 1 = formula (Ib), 24 h after administration, read-out: % inhibition at 3 mg/kg, 24 h) of 39% and an IC50 [2] of 12 nM.
`CC(C)c1nc2c(c(C3CCCC3)c1[C@@H](F)c1ccc(C(F)(F)F)cc1)[C@@H](O)CC(C)(C)C2` [Example 1] gave an IC50 [3] of 25 nM and an IC50 [4] of 84 nM.
